Results reported in article doi:10.1101/2022.03.11.483894v1, “Structure and function of diadenylate cyclase DacM from Mycoplasma ovipneumoniae” (biorxiv, 2022).

Biological target: T1, DacM (Δ2-33DacM; DacM (35-203)) (Mesomycoplasma ovipneumoniae, UniProt A0A014M399)
T1 construct: gene MOVI_0530; N-terminal transmembrane helix removed (Δ2-33); codon-optimized gene in pET28b, E. coli BL21(DE3), N-terminal His6 fusion; homodimer in crystal
T1 sequence (A0A014M399 35-203): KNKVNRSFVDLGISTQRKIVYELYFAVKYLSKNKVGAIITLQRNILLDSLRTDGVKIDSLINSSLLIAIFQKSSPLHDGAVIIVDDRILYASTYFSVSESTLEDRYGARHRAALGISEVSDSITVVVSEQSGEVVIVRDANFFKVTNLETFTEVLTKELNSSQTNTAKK
Assay: X-ray crystal structure of complex, […] Å; also LC-MS detection of c-di-AMP formation
Type: binding
Details: activity assay: 2 μM enzyme, 10 mM MgCl2, Tris-HCl pH 7.5, 37 °C, 1 h

SMILES | X-ray crystal structure of complex, 1.9 Å; also LC-MS detection of c-di-AMP form (crystal: 16 °C, HEPES pH 7.5, active site of protomer A, 0.1 mM ATP) | X-ray crystal structure of complex, 1.9 Å; also LC-MS detection of c-di-AMP form (crystal grown with ATP as additive, 16 °C, HEPES pH 7.5, active site of protomer B, 0.1 mM ADP)
Nc1ncnc2c1ncn2[C@@H]1O[C@H](COP(=O)(O)OP(=O)(O)OP(=O)(O)O)[C@@H](O)[C@H]1O [ATP] | an ATP molecule, which was clearly bound in the active site of one DacM protomer | –
Nc1ncnc2c1ncn2[C@@H]1O[C@H](COP(=O)(O)OP(=O)(O)O)[C@@H](O)[C@H]1O [ADP] | – | active site of the second DacM protomer (protomer B), was consistent with a bound molecule of ADP
